Experimental data from US6465395B2, “Substituted methylene pyrazolinones and the herbicidal use thereof” (BASF Aktiengesellschaft, priority 2000, dated 2002).

Assays:
Experiment in all cases: Postemergence herbicidal evaluation
Type in all cases: in vivo
Parameters in all cases: scale not given here
[1] = test system: ORYSAT, Rice, Tebonnet, Oryza sativa, (L.) Tebonnet; conditions: crop (rice)
Procedure: (§1) The postemergence herbicidal activity of the compounds of the present invention is evaluated by the following tests. Seedling plants are grown in jiffy flats for about two weeks. The test compounds are dispersed in 80/20 (v/v) acetone/water mixtures containing 1.0% SUN-IT®II, a methylated seed oil, in sufficient quantities to provide the equivalent of about 0.006 kg/ha to 0.800 kg/ha of active compound when applied to the plants through a spray nozzle operating at 40 psi for a predetermined time. After spraying, the plants are placed on greenhouse benches and are cared for in accordance with conventional greenhouse procedures. Approximately two to three weeks after treatment, the seedling plants are examined and rated according to the rating system set forth below. Where more than one test is involved for a given compound, the data are averaged.

[2] = test system: ABUTH, Velvetleaf, Abutilon theophrasti, Medic.
Procedure: as §1

[3] = test system: AMBEL, Ragweed, Ambrosia artemisifolia, L.
Procedure: as §1

[4] = test system: SETVI, Foxtail, Green, Setaria viridis, (L.) Beau
Procedure: as §1

[5] = test system: IPOSS, Morningglory spp., Ipomoea spp.
Procedure: as §1

[6] = test system: ZEAMX, Corn, Field, Zea mays, L.; conditions: crop (corn)
Procedure: as §1

[7] = test system: ECHCG, Barnyardgrass, Echinochloa crus-galli, (L.) Beau
Procedure: as §1

[8] = test system: PANDI, Panicum, Fall, Panicum dichotomiflorum, Michx
Procedure: as §1

[9] = test system: CHEAL, Lambsquarters, Chenopodium album, L.
Procedure: as §1

Row | Compound | Herbicide rating ABUTH ([2]; 0.0125 kg/ha) | Herbicide rating ABUTH ([2]; 0.0250 kg/ha) | Herbicide rating ABUTH ([2]; 0.0500 kg/ha) | Herbicide rating ABUTH ([2]; 0.1000 kg/ha) | Herbicide rating AMBEL ([3]; 0.0125 kg/ha) | Herbicide rating AMBEL ([3]; 0.0250 kg/ha) | Herbicide rating AMBEL ([3]; 0.0500 kg/ha) | Herbicide rating AMBEL ([3]; 0.1000 kg/ha) | Herbicide rating SETVI ([4]; 0.0125 kg/ha) | Herbicide rating SETVI ([4]; 0.0250 kg/ha) | Herbicide rating SETVI ([4]; 0.0500 kg/ha) | Herbicide rating SETVI ([4]; 0.1000 kg/ha) | Herbicide rating ZEAMX ([6]; 0.0125 kg/ha) | Herbicide rating ZEAMX ([6]; 0.0250 kg/ha) | Herbicide rating ZEAMX ([6]; 0.0500 kg/ha) | Herbicide rating ZEAMX ([6]; 0.1000 kg/ha) | Herbicide rating ECHCG ([7]; 0.0125 kg/ha) | Herbicide rating ECHCG ([7]; 0.0250 kg/ha) | Herbicide rating ECHCG ([7]; 0.0500 kg/ha) | Herbicide rating ECHCG ([7]; 0.1000 kg/ha) | also measured
1 | 4,4′-[(Z,Z)-Dithiobis[(2,3-dihydro-3,3,4-trimethylbenzo[b]thien-5-yl)methylidyne]]bis[1-methyl-2-pyrazolin-5-one] S,S,S′,S′,-tetraoxide, 80:20 mixture with 4,4′-[(E,Z)-dithiobis[(2,3-dihydro-3,3,4-trimethyl-benzo[b]thien-5-yl)methylidyne]]bis[1-methyl-2-pyrazolin-5-one] S,S,S′,S′-tetraoxide [Example 7] | 3.0 | 4.0 | 5.0 | 7.0 | 4.0 | 7.0 | 9.0 | 9.0 | 7.0 | 7.0 | 9.0 | 9.0 | 0.0 | 0.0 | 0.0 | 2.0 | 7.0 | 7.0 | 8.0 | 9.0 | Herbicide rating ORYSAT ([1]; 0.0125 kg/ha): 3.5; Herbicide rating ORYSAT ([1]; 0.0250 kg/ha): 6.0; Herbicide rating ORYSAT ([1]; 0.0500 kg/ha): 7.0; Herbicide rating ORYSAT ([1]; 0.1000 kg/ha): 7.0; Herbicide rating IPOSS ([5]; 0.0125 kg/ha): 1.0; Herbicide rating IPOSS ([5]; 0.0250 kg/ha): 1.0; Herbicide rating IPOSS ([5]; 0.0500 kg/ha): 2.0; Herbicide rating IPOSS ([5]; 0.1000 kg/ha): 2.0; Herbicide rating PANDI ([8]; 0.0125 kg/ha): 5.0; Herbicide rating PANDI ([8]; 0.0250 kg/ha): 3.0; Herbicide rating PANDI ([8]; 0.0500 kg/ha): 7.0; Herbicide rating PANDI ([8]; 0.1000 kg/ha): 9.0
2 | Cc1c(C(=C2C=NN(C)C2=O)N(C)C)ccc2c1C(C)(C)CS2(=O)=O [Example 2, 4-[(Z)-(2,3-Dihydro-3,3,4-trimethylbenzo[b]thien-5-yl)(dimethylamino)methylene]-1-methyl-2-pyrazolin-5-one S,S-dioxide] | 0.0 | 0.0 | 0.0 | 0.0 | 0.0 | 0.0 | 0.0 | 0.0 | 0.0 | 0.0 | 0.0 | 0.0 | 0.0 | 0.0 | 0.0 | 0.0 | 0.0 | 0.0 | 0.0 | 0.0 | Herbicide rating CHEAL ([9]; 0.0125 kg/ha): 0.0; Herbicide rating CHEAL ([9]; 0.0250 kg/ha): 0.0; Herbicide rating CHEAL ([9]; 0.0500 kg/ha): 0.0; Herbicide rating CHEAL ([9]; 0.1000 kg/ha): 0.0
